The values below come from patent publication US20250215030A1, “STAT MODULATORS AND USES THEREOF” (Recludix Pharma, Inc., priority 2022, published 2025).

One assay has as its target T1, pSTAT6 (pY641-STAT6) (Homo sapiens, UniProt P42226).
T1 construct: host or cells: cryopreserved PBMC
T1 sequence (P42226 1-847): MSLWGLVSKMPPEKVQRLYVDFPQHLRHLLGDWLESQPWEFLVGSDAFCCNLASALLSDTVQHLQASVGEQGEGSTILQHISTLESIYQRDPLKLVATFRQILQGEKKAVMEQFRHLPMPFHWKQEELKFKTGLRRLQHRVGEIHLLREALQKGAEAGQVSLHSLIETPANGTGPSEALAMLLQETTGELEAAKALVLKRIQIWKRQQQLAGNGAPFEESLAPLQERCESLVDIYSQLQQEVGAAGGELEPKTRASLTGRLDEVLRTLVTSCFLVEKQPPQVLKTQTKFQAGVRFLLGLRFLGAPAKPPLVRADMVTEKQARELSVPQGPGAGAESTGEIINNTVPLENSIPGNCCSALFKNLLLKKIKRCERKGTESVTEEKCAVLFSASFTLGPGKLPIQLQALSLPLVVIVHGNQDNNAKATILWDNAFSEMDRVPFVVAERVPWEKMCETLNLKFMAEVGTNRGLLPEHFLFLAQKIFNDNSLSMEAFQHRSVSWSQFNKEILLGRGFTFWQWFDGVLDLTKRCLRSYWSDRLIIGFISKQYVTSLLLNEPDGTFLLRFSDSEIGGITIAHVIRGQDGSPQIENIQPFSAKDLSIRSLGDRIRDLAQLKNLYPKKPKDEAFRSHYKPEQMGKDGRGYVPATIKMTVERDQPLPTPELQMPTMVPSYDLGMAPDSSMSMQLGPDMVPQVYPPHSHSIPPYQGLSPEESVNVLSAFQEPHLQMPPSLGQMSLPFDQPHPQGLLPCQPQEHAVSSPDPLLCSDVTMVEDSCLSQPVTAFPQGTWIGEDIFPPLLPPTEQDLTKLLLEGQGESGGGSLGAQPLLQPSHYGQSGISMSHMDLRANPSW
Briefly: MSD-pSTAT-PBMC Assay (pSTAT6, IL-4 stimulated). The format is cell-based. As to conditions: compound 3 hrs, then 1 ng/mL IL-4 for 10 min. In outline:
(§1)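 Phospho-STAT levels captured on anti-STAT3 or anti-STAT6 plates and detected with anti-pY705 or anti-pY641 antibodies (MSD read-out). Cryopreserved human PBMCs received compound for 3 h before a 10 min pulse of IL-6 (10 ng/mL, STAT3) or IL-4 (1 ng/mL, STAT6). IC50 fitted after unstimulated-background subtraction and DMSO normalization.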

For a further assay, the target named is T2, pSTAT3 (pY705-STAT3) (Homo sapiens, UniProt P40763).
T2 construct: host or cells: cryopreserved PBMC
T2 sequence (P40763 whole entry): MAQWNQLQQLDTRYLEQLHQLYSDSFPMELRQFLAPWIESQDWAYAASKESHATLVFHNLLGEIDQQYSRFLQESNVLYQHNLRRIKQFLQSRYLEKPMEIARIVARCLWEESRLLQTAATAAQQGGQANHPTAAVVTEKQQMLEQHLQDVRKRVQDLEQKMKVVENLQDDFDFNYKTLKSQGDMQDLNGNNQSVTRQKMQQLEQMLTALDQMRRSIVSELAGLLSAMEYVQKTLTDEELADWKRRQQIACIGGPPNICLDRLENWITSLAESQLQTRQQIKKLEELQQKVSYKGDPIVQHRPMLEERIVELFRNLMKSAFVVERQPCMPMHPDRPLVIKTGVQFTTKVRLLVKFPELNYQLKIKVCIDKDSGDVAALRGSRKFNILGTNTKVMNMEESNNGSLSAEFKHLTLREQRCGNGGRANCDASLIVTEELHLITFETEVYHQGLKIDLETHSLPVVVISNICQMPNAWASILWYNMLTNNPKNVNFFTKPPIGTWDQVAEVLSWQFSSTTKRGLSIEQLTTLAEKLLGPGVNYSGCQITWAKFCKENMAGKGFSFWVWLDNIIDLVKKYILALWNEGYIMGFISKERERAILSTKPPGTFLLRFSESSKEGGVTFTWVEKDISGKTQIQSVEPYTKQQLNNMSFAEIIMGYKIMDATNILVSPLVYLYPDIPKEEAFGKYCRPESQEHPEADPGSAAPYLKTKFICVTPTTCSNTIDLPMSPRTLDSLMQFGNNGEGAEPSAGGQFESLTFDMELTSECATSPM
Briefly: MSD-pSTAT-PBMC Assay (pSTAT3, IL-6 stimulated). The format is cell-based. Conditions: PBMC, compound 3 hrs, then 10 ng/mL IL-6 for 10 min; MSD pY705-STAT3; read-out: pSTAT3. Summed up:
as §1

For the compound `CC(C)(C)C(=O)SCCOP(=O)(Oc1ccccc1)C(F)(F)c1ccc2sc(C(=O)N[C@H]3C[C@H]4C[C@H]4C[C@H]4CC[C@@H](C(=O)N5CC(n6ccnc6)C5)N4C3=O)cc2c1` (stereo partly drawn) [Compound 195, S-(2-((((2-(((3S,6S,7aR, 8aS,9aR)-3-(3-(1H-imidazol-1-yl)azetidine-1-carbonyl)-5-oxodecahydro-1H-cyclopropa[d]pyrrolo[1,2-a]azocin-6-yl)carbamoyl)benzo[b]thiophen-5-yl)difluoromethyl) (phenoxy)phosphoryl)oxy)ethyl) 2,2-dimethyl-propanethioate], the IC50 at pSTAT6 (pY641-STAT6) was over 3000 nM; on pSTAT3 (pY705-STAT3) it was 100 to 1000 nM.
The corresponding values for `CC(C)CC(=O)SCCOP(=O)(Oc1ccccc1)C(F)(F)c1ccc2sc(C(=O)N[C@H]3C[C@H]4C[C@H]4C[C@H]4CC[C@@H](C(=O)N5CC(n6ccnc6)C5)N4C3=O)cc2c1` (stereo partly drawn) [Compound 196, S-(2-((((2-(((3S,6S,7aR, 8aS,9aR)-3-(3-(1H-imidazol-1-yl)azetidine-1-carbonyl)-5-oxodecahydro-1H-cyclopropa[d]pyrrolo[1,2-a]azocin-6-yl)carbamoyl)benzo[b]thiophen-5-yl)difluoromethyl) (phenoxy)phosphoryl)oxy)ethyl) 3-methylbutane thioate] are over 3000 nM and under 100 nM.
For `CCCC(=O)SCCOP(=O)(Oc1ccccc1)C(F)(F)c1ccc2sc(C(=O)N[C@H]3C[C@@H]4C[C@@H]4C[C@H]4CC[C@@H](C(=O)N5CC(n6ccnc6)C5)N4C3=O)cc2c1` (stereo partly drawn) [Compound 198, S-(2-((((2-(((3S,6S,7aS, 8aR,9aR)-3-(3-(1H-imidazol-1-yl)azetidine-1-carbonyl)-5-oxodecahydro-1H-cyclopropa[d]pyrrolo[1,2-a]azocin-6-yl)carbamoyl)benzo[b]thiophen-5-yl)difluoromethyl) (phenoxy)phosphoryl)oxy)ethyl) butanethioate] the same measures were 1000 to 3000 nM and under 100 nM.
Turning to `COC1(c2nccn2C)CN(C(=O)[C@@H]2CC[C@@H]3C[C@@H]4C[C@@H]4C[C@H](NC(=O)c4cc5cc(C(F)(F)P(=O)(OCCSC(=O)C(C)(C)C)OCCSC(=O)C(C)(C)C)ccc5s4)C(=O)N32)C1` [Compound 202, S,S′-((((difluoro(2-(((3S,6S,7aR, 8aS,9aR)-3-(3-methoxy-3-(1-methyl-1H-imidazol-2-yl)azetidine-1-carbonyl)-5-oxodecahydro-1H-cyclopropa[d]pyrrolo[1,2-a]azocin-6-yl)carbamoyl)benzo[b]thiophen-5-yl)methyl)phosphoryl)bis(oxy))bis(ethane-2,1-diyl)) bis(2,2-dimethyl-propanethioate)], the IC50 at pSTAT6 (pY641-STAT6) is over 3000 nM; at pSTAT3 (pY705-STAT3) it was under 100 nM.
For `CC(C)(C)C(=O)OCOP(=O)(OCOC(=O)C(C)(C)C)C(F)(F)c1ccc2sc(C(=O)N[C@H]3C[C@H]4C[C@H]4C[C@H]4CC[C@@H](C(=O)N5CC(c6c[nH]cn6)C5)N4C3=O)cc2c1` [Compound 203, ((((2-(((3S,6S,7aR, 8aS,9aR)-3-(3-(1H-imidazol-4-yl)azetidine-1-carbonyl)-5-oxodecahydro-1H-cyclopropa [d]pyrrolo[1,2-a]azocin-6-yl)carbamoyl)benzo[b]thiophen-5-yl)difluoromethyl)phosphoryl)bis(oxy)) bis(methylene) bis(2,2-dimethyl-propanoate)] the same measures were 100 to 1000 nM and under 100 nM.
For `CC(C)(C)C(=O)OCOP(=O)(OCOC(=O)C(C)(C)C)C(F)(F)c1ccc2sc(C(=O)N[C@H]3C[C@@H]4C[C@@H]4C[C@H]4CC[C@@H](C(=O)N5CC(N6CCOCC6)C5)N4C3=O)cc2c1` [Compound 204, (((difluoro(2-(((3S,6S,7aS, 8aR,9aR)-3-(3-morpholino-azetidine-1-carbonyl)-5-oxodecahydro-1H-cyclopropa[d]pyrrolo[1,2-a]azocin-6-yl)carbamoyl)benzo[b]thiophen-5-yl)methyl)phosphoryl)bis(oxy)) bis(methylene) bis(2,2-dimethyl-propanoate)] the same measures were 100 to 1000 nM and under 100 nM.
For `CC(C)(C)C(=O)OCOP(=O)(OCOC(=O)C(C)(C)C)C(F)(F)c1ccc2sc(C(=O)N[C@H]3C[C@@H]4C[C@@H]4C[C@H]4CC[C@@H](C(=O)N5CC(C6CCOCC6)C5)N4C3=O)cc2c1` [Compound 205, (((difluoro(2-(((3S,6S,7aS, 8aR,9aR)-5-oxo-3-(3-(tetrahydro-2H-pyran-4-yl)azetidine-1-carbonyl)decahydro-1H-cyclopropa[d]pyrrolo[1,2-a]azocin-6-yl)carbamoyl)benzo[b]thiophen-5-yl)methyl)phosphoryl)bis(oxy)) bis(methylene) bis(2,2-dimethyl-propanoate)] the same measures were 100 to 1000 nM and under 100 nM.
As to `CC(C)(C)C(=O)OCOP(=O)(OCOC(=O)C(C)(C)C)C(F)(F)c1ccc2sc(C(=O)N[C@H]3C[C@@H]4C[C@@H]4C[C@H]4CC[C@@H](C(=O)N5CC(c6ccccn6)C5)N4C3=O)cc2c1` [Compound 206, (((difluoro(2-(((3S,6S,7aS, 8aR,9aR)-5-oxo-3-(3-(pyridin-2-yl)azetidine-1-carbonyl)decahydro-1H-cyclopropa[d]pyrrolo[1,2-a]azocin-6-yl)carbamoyl)benzo[b]thiophen-5-yl)methyl)phosphoryl)bis(oxy)) bis(methylene) bis(2,2-dimethyl-propanoate)], the figures for the IC50 on pSTAT6 (pY641-STAT6) and on pSTAT3 (pY705-STAT3) were 100 to 1000 nM and under 100 nM, respectively.
For `CC(C)(C)C(=O)OCOP(=O)(OCOC(=O)C(C)(C)C)C(F)(F)c1ccc2sc(C(=O)N[C@H]3C[C@@H]4C[C@@H]4C[C@H]4CC[C@@H](C(=O)N5CC(n6ccnc6)C5)N4C3=O)cc2c1` [Compound 207] the same measures were over 3000 nM and under 100 nM.
The corresponding values for `CC(=O)N1C[C@H](NC(=O)[C@@H]2CC[C@@H]3C[C@H]4C[C@H]4C[C@H](NC(=O)c4cc5cc(C(F)(F)P(=O)(OCOC(=O)C(C)(C)C)OCOC(=O)C(C)(C)C)ccc5s4)C(=O)N32)[C@@H](O)C1` [Compound 208, ((((2-(((3S,6S,7aS, 8aR,9aR)-3-(((3S,4S)-1-acetyl-4-hydroxy-pyrrolidin-3-yl)carbamoyl) 5-oxodecahydro-1H-cyclopropa[d]pyrrolo[1,2-a]azocin-6-yl)carbamoyl)benzo[b]thiophen-5-yl)difluoromethyl)phosphoryl)bis(oxy)) bis(methylene) bis(2,2-dimethyl-propanoate)] are 1000 to 3000 nM and under 100 nM.
The corresponding values for `CC(C)(C)C(=O)OCOP(=O)(OCOC(=O)C(C)(C)C)C(F)(F)c1ccc2sc(C(=O)N[C@H]3C[C@H]4C[C@H]4C[C@H]4CC[C@@H](C(=O)N5CC(c6ccccn6)C5)N4C3=O)cc2c1` [Compound 209, (((difluoro(2-(((3S,6S,7aR, 8aS,9aR)-5-oxo-3-(3-(pyridin-2-yl)azetidine-1-carbonyl)decahydro-1H-cyclopropa[d]pyrrolo[1,2-a]azocin-6-yl)carbamoyl)benzo[b]thiophen-5-yl)methyl)phosphoryl)bis(oxy)) bis(methylene) bis(2,2-dimethyl-propanoate)] are 100 to 1000 nM and under 100 nM.
As for `CC(C)(C)C(=O)OCOP(=O)(OCOC(=O)C(C)(C)C)C(F)(F)c1ccc2sc(C(=O)N[C@H]3C[C@@H]4C[C@@H]4C[C@H]4CC[C@@H](C(=O)N5CC6(CN(C(=O)Cc7ccccc7)C6)C5)N4C3=O)cc2c1` [Compound 210, (((difluoro(2-(((3S,6S,7aS, 8aR,9aR)-5-oxo-3-(6-(2-phenyl-acetyl)-2,6-diazaspiro[3.3]heptane-2-carbonyl)decahydro-1H-cyclopropa[d]pyrrolo[1,2-a]azocin-6-yl)carbamoyl)benzo[b]thiophen-5-yl)methyl)phosphoryl)bis(oxy)) bis(methylene) bis(2,2-dimethyl-propanoate)], the IC50 against pSTAT6 (pY641-STAT6) was 100 to 1000 nM; on pSTAT3 (pY705-STAT3), under 100 nM.
The corresponding values for `CC(C)(C)C(=O)OCOP(=O)(OCOC(=O)C(C)(C)C)C(F)(F)c1ccc2sc(C(=O)N[C@H]3C[C@@H]4C[C@@H]4C[C@H]4CC[C@@H](C(=O)N5CCN(C(=O)c6cn[nH]c6)CC5)N4C3=O)cc2c1` [Compound 211, ((((2-(((3S,6S,7aS, 8aR,9aR)-3-(4-(1H-pyrazole-4-carbonyl)piperazine-1-carbonyl)-5-oxodecahydro-1H-cyclopropa[d]pyrrolo[1,2-a]azocin-6-yl)carbamoyl)benzo[b]thiophen-5-yl)difluoromethyl)phosphoryl)bis(oxy)) bis(methylene) bis(2,2-dimethyl-propanoate)] are over 3000 nM and 100 to 1000 nM.
